Where no end group is shown, it is not given here. PEG10kDa = 10 kDa linear methoxy-PEG propionaldehyde on the N-terminus; PEG20kDa = 20 kDa linear methoxy-PEG propionaldehyde on the N-terminus
Experiments:
[1] = literature examples; cited from earlier work
human plasma FN = experiment: Isothermal Titration calorimetry (ITC) of peptide binding to fibronectin; conditions: pH 7.4 PBS, 25° C., triplicate
Experimental: Isothermal Titration calorimetry (ITC): ITC experiments were performed using a VP-ITC microcalorimeter (MicroCal, LLC) with a cell volume of 2.2 mL. In a typical experiment, the cell was filled with 1.4 mL of 2 μM human plasma FN and the syringe was filled with 1 mL of 28 μM FUD or PEG-FUD peptides. The temperature was set to 25° C. The titration experiment was performed in 39 injections (1×1, 4×4, and 34×8 μL) delivered in 120 sec intervals. Prior to injection, both FN and the peptides were dialyzed in separate dialysis bags overnight into the same PBS buffer (pH 7.4) solution. Routine analysis involved discarding of the first data point and subtraction of peptide into PBS buffer control run. Data were fit using one set of sites model Lavenberg-Marquardt nonlinear regression in Origin 7.0.
The binding of 10 kDa, 20 kDa, and 40 kDa PEG-FUD to FN was studied using Isothermal Titration calorimetry (ITC). This technique was used to determine the thermodynamic parameters as well as the binding constant (Kd) of the interaction. The peptide was injected into a human plasma FN solution in PBS at pH 7.4 and 25° C. in triplicate runs. […] A Kd of 6 (±3) nM was detected for FUD:FN. […] Similar entropy change of −65 (±3) cal/mol, −74 (±7) cal/mol, −66 (±7) cal/mol, and −73 (±2) and enthalpy change of −31 (±1) kcal/mol, −34 (±2) kcal/mol, −30 (±1) kcal/mol, and −32.5 (±0.5) kcal/mol were detected for the interaction of FUD and 10 kDa, 20 kDa, and 40 kDa PEG-FUD with FN, respectively. […] This observation is contrary to the expectation of PEG attachment diminishing a drug's affinity for its binding partner and presents an unexpected but desired feature of the PEG-FUD peptide.

[2] = Fluorescence imaging (IVIS) of subcutaneous dose absorption; type: in vivo, mouse; conditions: for % dose remaining at the site of injection after 24 hours / apparent half-life at the site of injection: s.c. 12.5 mg/kg FUD equivalents; for apparent half-life at the site of injection: spiked with 1.5% Cy5 labeled drug, nude mice
Experimental: Preparation of Animal Experiment FUD and 10-40 kDa PEG-FUD Drug Dose: A 12.5 mg FUD equivalents per kg of mouse weight drug dose spiked with 1.5% Cy5 labeled drug was prepared by mixing an appropriate amount of unlabeled and labeled drug in a conical vial. The drug was then dialyzed ON into phosphate buffered saline (pH 7.4) using a 3000 MWCO dialysis membrane. The total volume of the dose was reduced to the appropriate value using a 3000 MWCO Amicon® Ultra-15 centrifugal unit. The final concentration of the drug was determined using a UV-vis spectrophotometer and the 646 nm extinction coefficient of Cy5, ε=271000 L·mol^−1·cm^−1.
10 week old mice weighing 20-23 g were placed under 2% isoflurane anesthesia and positioned on their abdomen inside of an IVIS Spectrum In Vivo Imaging System. A 100 uL dose containing 0.27 mg (12.5 mg/kg) of FUD or FUD equivalents of 10-40 kDa PEG-FUD that was spiked with 1.5% Cy5 labeled drug was delivered subcutaneously between the shoulder blades of the animals (n=3 per treatment group). The animals were imaged before the injection, immediately following injection, and at time points of 30 minutes and 1, 3, 6, 12, 24, 36, and 48 hours. The animals were sacrificed following the last time point and their organs were harvested for ex vivo fluorescence imaging and drug extraction and quantification. LivingImage® (PerkinElmer) software was used to analyze the views of each animal group. The autodraw feature of the software set to a 5% threshold was used to create unique regions of interest (ROI) on each animal at t=30 mins views that were consistently applied to each subsequent time point views to quantify drug levels present at the site of injection. Baseline autoflorescence values calculated from ROIs applied to “before injection” views were subtracted from the values of each time point's animals. The ROI values obtained from the t=30 mins views were used to calculate % dose remaining for each subsequent time point.

[3] = system: Alexa 488-labeled human plasma FN; experiment: Matrix Assembly in vitro Assay (MAA), A488-FN deposition by AH1F fibroblasts; type: cell-based; conditions: 24 hours, viability-normalized fluorescence, n=4, FUD run alongside each conjugate
Sequence of Alexa 488-labeled human plasma FN (P02751 32-608 limits assumed): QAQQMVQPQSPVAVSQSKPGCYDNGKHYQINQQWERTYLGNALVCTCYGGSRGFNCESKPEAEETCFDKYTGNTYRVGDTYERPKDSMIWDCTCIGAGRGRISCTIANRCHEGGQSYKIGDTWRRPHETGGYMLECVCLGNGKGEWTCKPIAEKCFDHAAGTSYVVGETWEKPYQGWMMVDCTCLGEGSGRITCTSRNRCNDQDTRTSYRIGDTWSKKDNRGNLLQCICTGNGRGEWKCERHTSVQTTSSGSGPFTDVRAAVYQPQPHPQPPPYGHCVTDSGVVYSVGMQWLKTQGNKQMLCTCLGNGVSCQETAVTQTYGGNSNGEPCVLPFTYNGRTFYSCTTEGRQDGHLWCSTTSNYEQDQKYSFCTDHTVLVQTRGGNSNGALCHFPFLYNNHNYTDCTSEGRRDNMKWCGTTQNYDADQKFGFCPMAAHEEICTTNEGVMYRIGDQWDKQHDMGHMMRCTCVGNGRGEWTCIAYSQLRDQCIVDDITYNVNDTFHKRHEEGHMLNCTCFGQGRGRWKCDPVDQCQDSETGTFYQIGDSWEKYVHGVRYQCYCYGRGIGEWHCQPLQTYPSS
Experimental: Matrix Assembly Assay: The matrix assembly assay was conducted in the 96-well plate format as described in the art. AH1F human skin fibroblast cells resuspended in 2% fetal bovine serum were added to each well for a density of 60,000 cells per well. A 1 hr incubation period at 37° C. followed to allow cell adhesion and spreading. FUD, PEG-FUD, or PEG-mFUD were added to each well following incubation. Immediately, Alexa Fluor® 488 fluorescence labeled human plasma fibronectin (A488-FN) was then added to each well for a final FN concentration of 11 μg/mL. The cells were then incubated for 24 hours at 37° C. Non-assembled FN was removed from each well by washing with Hank's Balanced Salt Solution (HBSS) containing Ca^2+ and Mg^2+. The well volume was restored to 60 μL with HBSS and a fluorescence reading from the bottom of each well was taken using a Synergy™ H1 (Biotek) plate reader (excitation: 485 nm, Emission: 538 nm). Cell viability was quantified using CellTiter-Glo® cell viability assay using the manufacturer's protocol. A 30 μL aliquot of HBSS was removed from each well and was replaced with 30 μL of the luminescence reagent prepared shortly beforehand. Luminescence was quantified using the same plate reader. The average of fluorescence values of a no A488FN or inhibitor control group were routinely subtracted from the readings of each well and were normalized using each well's corresponding luminescence value. Lastly, the cell viability normalized fluorescence values were expressed as a percentage of the 0 nM drug control group. The final results were processed using Graphpad Prism 7.0 software. IC50 values were extracted using a four-parameter dose-response curve function. Student's t test was used to determine significance of differences among peptides at a given drug concentration.
The PEG-FUD FN fibrillogenesis inhibitory performance was evaluated in vitro using the matrix assembly assay (MAA). The methodology of this assay is depicted in FIG. 8. The MAA quantifies ECM deposition of exogenous AlexaFluor® 488-labeled FN (A488FN) by a confluent monolayer of fibroblasts after an incubation period by measuring fluorescence of deposited FN. In this study, the performance of PEG-FUD peptides was compared to that of FUD and the PEG-mFUD control peptide using the AH1F human foreskin fibroblast cell line.

Sequence of human plasma FN (P02751 32-608 limits assumed): as above

Substance	reduction of activity upon PEGylation [1] [fold]	Kd (human plasma FN) [nM]	% dose remaining at the site of injection after 24 hours [2] [%]	apparent half-life at the site of injection [2] [h]	IC50 [3] [nM]	migration into the site of injury (ear tag wound) ([2]; fluorescence imaging)
PEG-G120K-GH: literature example of a PEGylated protein with reduced activity	186					
20 kDa PEG-FUD: FUD N-terminally mono-PEGylated with 20 kDa linear methoxy-PEG propionaldehyde (PEG20kDa-KDQSPLAGESGETEYITEVYGNQQNPVDIDKKLPNETGFSGNMVETEDT)		10	3.5	6.2	23	
40 kDa PEG-FUD: FUD N-terminally mono-PEGylated with 40 kDa branched methoxy-PEG propionaldehyde ({mPEG 40 kDa branched}-KDQSPLAGESGETEYITEVYGNQQNPVDIDKKLPNETGFSGNMVETEDT)		14.7	7.9	8.7	20	
10 kDa PEG-FUD: FUD N-terminally mono-PEGylated with 10 kDa linear methoxy-PEG propionaldehyde (PEG10kDa-KDQSPLAGESGETEYITEVYGNQQNPVDIDKKLPNETGFSGNMVETEDT)		4.6	1.2	2.8	17	migration of 10 K PEG-FUD into the site of injury

— patent US10828372B2, “Compositions and methods for the inhibition of fibrosis” (WISCONSIN ALUMNI RESEARCH FOUNDATION, priority 2017, dated 2020)
